Values quoted from earlier work, collected in patent US20240139480A1, “RETENTIVE DEVICES FOR GASTROINTESTINAL TRACT” (Teva Pharmaceutical Industries Ltd., priority 2021, published 2024).

Conditions: given as ester prodrug; extensive intestinal esterase degradation

Which bioavailability does the source give for CC(C)OC(=O)OCOP(=O)(CO[C@H](C)Cn1cnc2c(N)ncnc21)OCOC(=O)OC(C)C [Tenofovir disoproxil] here?
Its bioavailability is “about 30%”.
